US8663927B2, “Systems and methods for diagnosis and monitoring of bacteria-related conditions” (priority 2007, dated 2014)

What was measured:
LasR = molecular target: T1, LasR (Pseudomonas aeruginosa, UniProt P25084); test: Whole-cell sensing system harboring plasmid pSB1075 (lasR, PlasI::luxCDABE) in E. coli JM109, bioluminescence; type: cell-based; conditions: for Dynamic Range / Limit of Detection: pSB1075; for Limit of Detection: concentration giving signal >= blank average plus three standard deviations; for Signal Intensity at 1 × 10^−4 M: pSB1075 sensing cells, 2 h incubation at 37° C., racemic AHL, average ± one standard deviation (n = 3)
T1 construct: expressed in transfected cells; host or cells: Escherichia coli JM109 transformed with plasmid pSB1075
T1 sequence (P25084 whole entry): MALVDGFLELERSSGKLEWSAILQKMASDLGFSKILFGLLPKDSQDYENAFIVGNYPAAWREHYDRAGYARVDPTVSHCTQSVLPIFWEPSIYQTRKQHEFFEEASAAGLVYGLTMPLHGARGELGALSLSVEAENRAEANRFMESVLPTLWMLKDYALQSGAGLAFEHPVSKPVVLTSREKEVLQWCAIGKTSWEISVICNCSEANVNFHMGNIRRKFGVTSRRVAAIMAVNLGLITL
Procedure: (§1) The bacterial strain Escherichia coli JM109 was purchased from Stratagene (Cedar Creek, Tex.). Plasmids pSB406 and pSB1075 were transformed respectively into competent E. coli JM109 cells using the standard protocol provided by the manufacturer. The transformed cells were grown at 37° C. overnight on LB agar plates containing 50 μg/mL ampicillin. Cells from a single colony were grown overnight at 37° C., 250 rpm in LB broth containing the same amount (w/v) of ampicillin. Glycerol stocks were prepared from those cell cultures and stored at −80° C. Fresh cell cultures were obtained from the glycerol stocks and grown in an orbital shaker at 37° C., 250 rpm until an optical density at 600 nm (OD600 nm) of 0.45-0.50 was reached.
(§2) Commercially available AHLs were dissolved in acetonitrile to obtain 1×10^−2 M stock solutions, which were serially diluted with distilled, deionized water. AHL standard solutions of concentrations ranging from 1×10^−4 to 1×10^−9 M were obtained. A 1% solution of acetonitrile in distilled, deionized water was used as blank. […] A total of 100 μL of each of these solutions was added in triplicate to culture tubes containing 1 mL of cell culture grown to an OD600 nm of 0.45-0.50. These culture tubes were then incubated in an orbital shaker at 37° C. at 250 rpm for 2 h. The induced bioluminescence was then measured using a microplate reader after transferring 200 μL aliquots in triplicate from each culture tube into a 96-well micro titer plate. The total measuring time/well was 0.20 s. The light intensity was expressed in relative light units (RLU). The results were plotted using the software GraphPad Prism 4 (GraphPad Software, Inc., San Diego, Calif.).
(§3) Two different whole-cell sensing systems were used, harboring either the pSB406 or pSB1075 plasmid, which are based on P. aeruginosa quorum sensing regulatory systems. The plasmids pSB406 and pSB 1075 incorporate the genes rhlR and lasR, respectively, and the reporter gene cassette luxCDABE under transcriptional control of the promoters of the genes rhlI and lasI (PrhlI and PlasI) respectively. Since the rhlI and lasI genes code for the synthases for the AHLs, they are not cloned into plasmids used for sensing. When AHLs are present in the environment of the sensing bacterial cells, they bind to the regulatory proteins RhlR and LasR. Subsequently, the regulatory protein-AHL complex binds to the corresponding promoter and activates gene transcription (see, e.g., FIG. 2A for a schematic representation of AHL-dependent regulation of quorum sensing in LuxR/LuxI-type systems, and FIG. 2B for a schematic representation of plasmids pSB1075 and pSB406). As a result, the luxCDABE cassette is expressed and a bioluminescent signal is produced. Further, the bioluminescence signal produced is directly proportional to the amount of the target AHL molecule present.
The limit of detection was 1×10^−9 M for C14-HSL, as well as C12-HSL.

RhlR = molecular target: T2, RhlR (Pseudomonas aeruginosa, UniProt P54292); test: Whole-cell sensing system harboring plasmid pSB406 (rhlR, PrhlI::luxCDABE) in E. coli JM109, bioluminescence; type: cell-based; conditions: for Limit of Detection: concentration giving signal >= blank average plus three standard deviations; for Signal Intensity at 1 × 10^−4 M: pSB406 sensing cells, 2 h incubation at 37° C., racemic AHL, average ± one standard deviation; for response of the biosensing system at the highest concentration tested: pSB406, 1×10^−4 M
T2 construct: expressed in transfected cells; host or cells: Escherichia coli JM109 transformed with plasmid pSB406
T2 sequence (P54292 whole entry): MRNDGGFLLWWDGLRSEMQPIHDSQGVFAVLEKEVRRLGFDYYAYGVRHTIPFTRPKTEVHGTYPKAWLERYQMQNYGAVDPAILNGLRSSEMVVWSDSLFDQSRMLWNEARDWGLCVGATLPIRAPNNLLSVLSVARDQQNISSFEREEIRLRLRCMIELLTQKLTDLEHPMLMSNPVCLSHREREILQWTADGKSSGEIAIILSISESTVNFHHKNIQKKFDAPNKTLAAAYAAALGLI
Procedure: as §1, §2, §3
Characterization of the whole-cell biosensing systems for the detection of AHLs was performed by incubating the bacterial cells with standard N-acyl homoserine lactone compounds with acyl side chains of different lengths. […] [19] […] Both compounds could be detected at concentrations as low as 1×10^−9 M, with a dynamic range of 4 orders of magnitude. The limit of detection was defined as the analyte concentration that produced a signal equal to or higher than the average signal produced by the blank plus three standard deviations.

V. harveyi strain BB170 = test: AI-2 whole-cell sensing with bioluminescent sensor strain BB170; type: cell-based, Vibrio harveyi; conditions: 10^−7 M AI-2, after 2.5 hours of incubation with the BB170 sensor strain
Procedure: AB media used to grow V. harveyi strain BB170, a genetically modified strain that produces light in response to AI-2, was prepared as described previously. The BB170 sensor strain was grown overnight in AB medium at 30° C. and 175 rpm. The following day, overnight grown BB170 culture was diluted in AB medium to obtain a final O.D.600 nm of 0.010.
Saliva samples were collected and processed as described hereinabove. The available stock of AI-2 was 3.9 mM. AI-2 standard solutions with concentrations ranging from 2.5×10^−4M to 10^−7M were then prepared by using distilled, deionized water. 10 μL of AI-2 standard solution was incubated with 90 μL of BB170 bacterial culture at O.D.600 nm 0.010, in triplicate on a microtitre plate. 10 μL water incubated with 90 μL of BB170 served as a blank. An orbital shaker set at 30° C. and 175 rpm was used for incubation. Bioluminescence was then measured over a period of time. In order to evaluate the effect of saliva matrix, saliva samples were also spiked with a particular concentration of AI-2 and then incubated with the BB170 strain. […]
Vibrio harveyi bioluminescent strain BB170 was used for the detection of AI-2 and was modified from the wild type V. harveyi so that it induces lux expression exclusively in response to AI-2. AI-2 is detected by BB170 when it binds to the periplasmic protein LuxP. […]

Row | Molecule | Dynamic Range (LasR) [nM] | response of the whole-cell sensor at the highest concentration tested (LasR; pSB1075, 1×10^−4 M) | Limit of Detection (LasR) [nM] | Signal Intensity at 1 × 10^−4 M (LasR) | Limit of Detection (RhlR; pSB406) [nM] | Signal Intensity at 1 × 10^−4 M (RhlR) | Dynamic Range (RhlR; pSB406) [nM] | Average Signal (V. harveyi strain BB170) [RLU] | dynamic range (RhlR; pSB406) | response of the biosensing system at the highest concentration tested (RhlR) | L-isomer versus DL-racemic mixture: limit of detection, dynamic range and maximum signal intensity of the dose-response curves (RhlR; pSB406)
1 | CCCCCCCCCCCCCC(=O)NC1CCOC1=O (centres unmarked) [C14-HSL, N-tetradecanoyl homoserine lactone] | 1 to 100000 | induced the maximum response | 1 | 11.74 ± 0.09 ×10^5, RLU | >10000 | 4.22 ± 0.22 ×10^5, RLU | – | – | – | – | –
2 | CCCCCCCC(=O)NC1CCOC1=O (centres unmarked) [C8-HSL, N-octanoyl homoserine lactone] | 10000 to 100000 | – | 10000 | 7.94 ± 0.70 ×10^5, RLU | 1 | 6.87 ± 0.23 ×10^5, RLU | 1 to 100000 | – | – | – | –
3 | CCCCCCCCCCCC(=O)NC1CCOC1=O (centres unmarked) [C12-HSL, N-dodecanoyl homoserine lactone] | 1 to 10000 | – | 1 | 8.99 ± 0.17 ×10^5, RLU | 10 | 8.40 ± 0.55 ×10^5, RLU | 10 to 10000 | – | – | – | –
4 | Autoinducer-2 [AI-2] | – | – | – | – | – | – | – | 324218 | – | – | –
5 | CCCC(=O)NC1CCOC1=O (centres unmarked) [C4-HSL, N-butyryl homoserine lactone] | 100 to 100000 | – | 100 | 1.87 ± 0.06 ×10^5, RLU | 1 | 19.99 ± 0.00 ×10^5, RLU | 1 to 100000 | – | 4 orders of magnitude | induced the maximum response | –
6 | CCCC(=O)CC(=O)N[C@H]1CCOC1=O [3-oxo-C6-HSL, N-(3-oxo)-hexanoyl homoserine lactone] | – | – | – | – | – | – | – | – | – | – | no significant differences
7 | CCCCCC(=O)NC1CCOC1=O (centres unmarked) [C6-HSL, N-hexanoyl homoserine lactone] | – | – | >100000 | 2.53 ± 1.15 ×10^5, RLU | 1 | 19.64 ± 0.25 ×10^5, RLU | 1 to 100000 | – | 4 orders of magnitude | induced the maximum response | –
